Laboratory results published in US9341616B2, “Sweet taste receptor chimeric proteins and use thereof” (AJINOMOTO CO., INC., priority 2014, dated 2016).
Residues, ends and D or L forms follow the SMILES beside them.

Target: h-mT1R2-EX5/mT1R3 (UniProt Q8TE23+Q925D8, A537S/A564V/A568V/A570T/A649T/A658V/A782V/E530V/E534N/E542M/E548N/F525Y/F665L/G696N/G701T/H528R/I490V/I510L/I518V/I595M/I643V/I645L/I692L/I695G/K504M/K626T/K714N/L521P/L571I/L578I/L610P/L631F/L636F/L639V/L688V/L702I/L734M/L800F/M492I/M616G/M682V/M690V/M748V/N540G/N541S/N721H/P638T/P824S/Q536L/Q546K/Q555R/Q676H/R498S/R667S/S501P/S547N/S550A/S628F/S663R/S670G/S681F/S703N/S727G/S784D/S804G/T529S/T549I/T609V/T629S/T642S/T705I/T706G/T716I/V508I/V512P/V557A/V585L/V613L/V617M/V673M/V687A/V691A/V694A/V718L/V741L/V774I/V791M/Y533F/Y615F/Y671F/Y769S/Y783H)
Conditions: Table 4; genes h-mTEX5/mT3 (h-mT1R2-EX5, mT1R3); HEK293E cells

h-mT1R2-EX5/mT1R3, sequence (Q8TE23 with tags, fused parts or gaps with the stated changes limits assumed): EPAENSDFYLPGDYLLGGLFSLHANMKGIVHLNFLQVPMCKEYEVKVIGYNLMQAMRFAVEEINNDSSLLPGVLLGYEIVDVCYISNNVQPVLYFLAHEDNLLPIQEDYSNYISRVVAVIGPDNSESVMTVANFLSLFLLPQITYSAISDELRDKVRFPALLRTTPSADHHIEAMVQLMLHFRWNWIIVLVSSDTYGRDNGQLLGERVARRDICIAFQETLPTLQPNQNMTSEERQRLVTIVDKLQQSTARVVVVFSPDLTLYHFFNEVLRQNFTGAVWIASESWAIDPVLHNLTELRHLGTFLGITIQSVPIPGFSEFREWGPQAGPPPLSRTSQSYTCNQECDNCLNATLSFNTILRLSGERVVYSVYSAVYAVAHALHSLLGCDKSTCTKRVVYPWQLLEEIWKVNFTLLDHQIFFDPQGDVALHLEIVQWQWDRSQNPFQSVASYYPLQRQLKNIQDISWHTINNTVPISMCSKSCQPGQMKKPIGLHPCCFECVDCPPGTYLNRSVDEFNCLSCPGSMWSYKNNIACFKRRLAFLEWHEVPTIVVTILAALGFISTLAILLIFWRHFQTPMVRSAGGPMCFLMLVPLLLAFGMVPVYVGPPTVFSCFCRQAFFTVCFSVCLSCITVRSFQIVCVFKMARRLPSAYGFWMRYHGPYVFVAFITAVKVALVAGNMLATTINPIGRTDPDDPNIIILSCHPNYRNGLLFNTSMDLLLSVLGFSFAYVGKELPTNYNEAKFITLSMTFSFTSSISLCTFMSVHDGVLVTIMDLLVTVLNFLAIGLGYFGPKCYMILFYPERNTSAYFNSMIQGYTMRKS
h-mT1R2-EX5/mT1R3, sequence (Q925D8 21-858, stated change not applied): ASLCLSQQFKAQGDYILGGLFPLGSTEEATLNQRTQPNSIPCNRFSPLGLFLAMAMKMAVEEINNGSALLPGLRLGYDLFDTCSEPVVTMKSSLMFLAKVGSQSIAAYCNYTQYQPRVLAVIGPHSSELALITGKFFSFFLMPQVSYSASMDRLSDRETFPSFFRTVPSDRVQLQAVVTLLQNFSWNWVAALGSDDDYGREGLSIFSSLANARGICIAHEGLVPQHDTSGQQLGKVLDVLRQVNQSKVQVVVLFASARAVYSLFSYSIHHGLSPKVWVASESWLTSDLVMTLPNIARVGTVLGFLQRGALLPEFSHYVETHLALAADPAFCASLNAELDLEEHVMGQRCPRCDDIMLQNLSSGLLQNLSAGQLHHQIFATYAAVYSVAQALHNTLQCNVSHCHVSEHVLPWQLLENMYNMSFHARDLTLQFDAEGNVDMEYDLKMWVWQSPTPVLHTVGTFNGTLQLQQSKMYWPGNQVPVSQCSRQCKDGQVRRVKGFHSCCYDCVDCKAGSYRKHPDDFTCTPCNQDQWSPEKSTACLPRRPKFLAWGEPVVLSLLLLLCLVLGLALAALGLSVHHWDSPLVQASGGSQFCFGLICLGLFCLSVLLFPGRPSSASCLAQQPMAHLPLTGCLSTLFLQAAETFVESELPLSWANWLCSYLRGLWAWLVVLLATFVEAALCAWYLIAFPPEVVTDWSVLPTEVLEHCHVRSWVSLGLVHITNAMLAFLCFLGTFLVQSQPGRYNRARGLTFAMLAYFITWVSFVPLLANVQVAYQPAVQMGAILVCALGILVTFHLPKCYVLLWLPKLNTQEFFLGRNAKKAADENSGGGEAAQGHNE

Structure (SMILES) | S/N
OC[C@H]1O[C@H](O[C@]2(CCl)O[C@H](CCl)[C@@H](O)[C@@H]2O)[C@H](O)[C@@H](O)[C@H]1Cl [Sucralose, sucralose] | 5.9
CC1=CC(=O)NS(=O)(=O)O1 [Acesulfame K, acesulfame potassium] | 3.7
COC(=O)[C@H](Cc1ccccc1)NC(=O)[C@H](CC(=O)O)NCCCc1ccc(OC)c(O)c1 [Advantame, advantame] | 7.0
OC[C@H]1O[C@@](CO)(O[C@H]2O[C@H](CO)[C@@H](O)[C@H](O)[C@H]2O)[C@@H](O)[C@@H]1O [Sucrose, sucrose] | 3.7
COC(=O)[C@H](Cc1ccccc1)NC(=O)[C@H](CC(=O)O)NCCC(C)(C)C [Neotame, neotame] | 5.2
C[C@H](NC(=Nc1ccc(C#N)cc1)NCC(=O)O)c1ccccc1 [SC-45647, [3-[(S)-1-phenylethyl]-2-(4-cyanophenyl)guanidino]acetic acid] | 5.3
O=C1NS(=O)(=O)c2ccccc21.[Na] [Saccharin Na, sodium saccharin] | 3.8
COC(=O)[C@H](Cc1ccccc1)NC(=O)[C@@H](N)CC(=O)O [Aspartame, aspartame] (HELM PEPTIDE1{D.F.[CO[*:1]]}$$$$V2.0) | 5.5
